# Like-named read-outs stand apart in the source and are kept apart here.
# Tests used:
# [1] = tested on: clinical isolates of bacteria and fungus (including yeasts); assay: General antimicrobial activity, semi-quantitative score on collection of clinical isolates; assay type: cell-based; for General antimicrobial activity: key: −: indicating no activity; +++++: indicating highest activity
# Description: The growth inhibitory effect of a number of various ITC compounds were tested on large collection of clinical isolates of bacteria and fungus (including yeasts), in order to establish a systematic structure-activity relationship for the ITC compounds. […] To assess the average activity for an individual ITC compound, the semi-quantitative score was calculated for each compound based on the number of sensitive bacterial strains at concentrations of 100 and 200 μM.
# [2] = Compound stability, independent experiments; assay type: physicochemical
# [3] = tested on: Candida albicans 90030; assay: Anti-fungal MIC, Candida albicans 90030; conditions: Candida albicans, 90030, read-out: Anti-Fungal Activity (MIC)
# [4] = tested on: M. cansassi; assay: MIC, M. cansassi; assay type: cell-based
# [5] = tested on: M. avium; assay: MIC, M. avium; assay type: cell-based; conditions: Mycobacterium avium
# [6] = tested on: M. tuberculosis P; assay: MIC, M. tuberculosis P; assay type: cell-based; conditions: Mycobacterium tuberculosis, read-out: MIC
# Description: (§1) Next, several of the bifunctional ITC compounds were tested for their ability to inhibit the growth of some clinical isolates of Mycobacteria, the results of which are summarized in Table 3 below.
# [7] = tested on: Candida dlabrata 250^mdr; assay: Anti-fungal MIC, Candida dlabrata 250^mdr; conditions: Candida, read-out: Anti-Fungal Activity (MIC)
# [8] = tested on: Candida albicans 90028; assay: Anti-fungal MIC, Candida albicans 90028; conditions: Candida albicans, 90028, read-out: Anti-Fungal Activity (MIC)
# [9] = tested on: M. fortuitum; assay: MIC, M. fortuitum; assay type: cell-based; conditions: Mycolicibacterium fortuitum
# [10] = tested on: M. scrofulaceum; assay: MIC, M. scrofulaceum; assay type: cell-based; conditions: Mycobacterium scrofulaceum
# [11] = tested on: Candida parapsilosis 22019; assay: Anti-fungal MIC, Candida parapsilosis 22019; conditions: 22019, read-out: Anti-Fungal Activity (MIC)
# [12] = tested on: Aspergillus fumigatus Rit 11; assay: Anti-fungal MIC, Aspergillus fumigatus Rit 11; conditions: Aspergillus fumigatus, RIT11, read-out: Anti-Fungal Activity (MIC)
# [13] = tested on: Aspergillus fumigatus Rit 21; assay: Anti-fungal MIC, Aspergillus fumigatus Rit 21; conditions: Aspergillus fumigatus, RIT21, read-out: Anti-Fungal Activity (MIC)
# [14] = tested on: Candida crusei 6258^mdr; assay: microbe, parasite or virus in culture; conditions: read-out: Anti-Fungal Activity (MIC)
# [15] = tested on: M. tuberculosis CDC1551; assay: MIC, M. tuberculosis CDC1551; assay type: cell-based; conditions: Mycobacterium tuberculosis, read-out: MIC
# Description: as §1
# [16] = tested on: M. tuberculosis H37Rv; assay: MIC, M. tuberculosis H37Rv; assay type: cell-based; conditions: Mycobacterium tuberculosis, read-out: MIC
# Description: as §1
# [17] = tested on: M. intracellularie; assay: MIC, M. intracellularie; assay type: cell-based
# [18] = tested on: Aspergillus fumigatus Rit 1; assay: Anti-fungal MIC, Aspergillus fumigatus Rit 1; conditions: Aspergillus fumigatus, RIT1, read-out: Anti-Fungal Activity (MIC)
# [19] = tested on: M. tuberculosis W; assay: MIC, M. tuberculosis W; assay type: cell-based; conditions: Mycobacterium tuberculosis, read-out: MIC
# Description: as §1
# [20] = tested on: virus (92TH594); assay: Viral proliferation in PBMC, p24 viral antigen; assay type: cell-based; conditions: PBMC
# [21] = tested on: Candida albicans 5108^mdr; assay: Anti-fungal MIC, Candida albicans 5108^mdr; conditions: Candida albicans, read-out: Anti-Fungal Activity (MIC)
# [22] = tested on: Cryptococcus neoformans CNH99; assay: Anti-fungal MIC, Cryptococcus neoformans CNH99; conditions: Cryptococcus neoformans, CNH99, read-out: Anti-Fungal Activity (MIC)
# [23] = tested on: Bacillus cereus; assay: Activity of ITC compounds against Bacillus cereus; assay type: cell-based
# [24] = In vivo tolerance in mice; conditions: highest dose, 50 mg/kg
# [25] = tested on: methicillin-resistant Staphylococcus aureus (MRSA); assay: Activity against MRSA (data not shown); assay type: cell-based
# [26] = tested on: Staphylococcus epidermidis; assay: Activity against Staphylococcus epidermidis (data not shown); assay type: cell-based
# [27] = tested on: Enterobacter cloacii BK12313; assay: MIC, Enterobacter cloacii BK12313; conditions: Enterobacter, BK12313, 24 h
# [28] = tested on: Acinetobacter sp., BK12786; assay: MIC, Acinetobacter sp., BK12786; conditions: Acinetobacter, 24 h
# [29] = tested on: Enterococcus sp., BK11936; assay: MIC, Enterococcus sp., BK11936; conditions: Enterococcus, 24 h
# [30] = tested on: MRSA (Staphylococcus aureus) BK12060; assay: MIC, MRSA BK12060; conditions: Staphylococcus aureus, MRSA, 24 h
# [31] = tested on: Streptococcus sp., BK12233; assay: MIC, Streptococcus sp., BK12233; conditions: Streptococcus, 24 h
# [32] = tested on: Staphylococcus epidermidis BK12798; assay: MIC, Staphylococcus epidermidis BK12798; conditions: Staphylococcus epidermidis, BK12798, 24 h
# [33] = tested on: Enterobacter cloacii BK12315; assay: MIC, Enterobacter cloacii BK12315; conditions: Enterobacter, BK12315, 24 h
# [34] = tested on: MRSA (Staphylococcus aureus) BK12064; assay: MIC, MRSA BK12064; conditions: Staphylococcus aureus, MRSA, 24 h
# [35] = tested on: Bacillus subtilis BK11590; assay: MIC, Bacillus subtilis BK11590; assay type: cell-based; conditions: Gram +, 24 hours of incubation, read-out: MIC
# [36] = tested on: Pseudomonas aeruginosa BK12348; assay: MIC, Pseudomonas aeruginosa BK12348; conditions: Pseudomonas aeruginosa, BK12348, 24 h
# [37] = tested on: Serattia marcescens BK12426; assay: MIC, Serattia marcescens BK12426; conditions: 24 h
# [38] = tested on: Klebsiella pneumonii BK12261; assay: MIC, Klebsiella pneumonii BK12261; conditions: Klebsiella, BK12261, 24 h
# [39] = tested on: Shigella sp., BK 12440; assay: MIC, Shigella sp., BK 12440; assay type: cell-based; conditions: Gram −, 24 hours of incubation, read-out: MIC
# [40] = tested on: Shigella sp., BK 12441; assay: MIC, Shigella sp., BK 12441; assay type: cell-based; conditions: Gram −, 24 hours of incubation, read-out: MIC
# [41] = tested on: Staphylococcus epidermidis BK12799; assay: MIC, Staphylococcus epidermidis BK12799; conditions: Staphylococcus epidermidis, BK12799, 24 h
# [42] = tested on: Streptococcus sp., BK12235; assay: MIC, Streptococcus sp., BK12235; conditions: Streptococcus, 24 h
# [43] = tested on: Acinetobacter sp., BK12787; assay: MIC, Acinetobacter sp., BK12787; conditions: Acinetobacter, 24 h
# [44] = tested on: Escherichia coli BK12336; assay: MIC, Escherichia coli BK12336; conditions: Escherichia coli, BK12336, 24 h
# [45] = tested on: Klebsiella pneumonii BK12260; assay: MIC, Klebsiella pneumonii BK12260; conditions: Klebsiella, BK12260, 24 h
# [46] = tested on: Serattia marcescens BK12421; assay: MIC, Serattia marcescens BK12421; conditions: 24 h
# [47] = tested on: Pseudomonas aeruginosa BK12347; assay: MIC, Pseudomonas aeruginosa BK12347; conditions: Pseudomonas aeruginosa, BK12347, 24 h
# [48] = tested on: Bacillus cereus 4342; assay: MIC, Bacillus cereus 4342; conditions: Bacillus cereus, 4342, 24 h
# [49] = tested on: Escherichia coli K12; assay: MIC, Escherichia coli K12; conditions: Escherichia coli, K12, 24 h
# [50] = tested on: Enterococcus sp., BK11940; assay: MIC, Enterococcus sp., BK11940; conditions: Enterococcus, 24 h
smiles,measurement,setting,value
S=C=NCc1ccncc1 [Compound 29],General antimicrobial activity,"[1]; semi-quantitative score from number of sensitive bacterial strains at 100 and 200 μM, deduced from number of sensitive bacterial species and average MIC",−
same,stability of the compound,[2],instability of the compound
S=C=NCc1cccnc1 [Compound 30],MIC,[3],1 µg/mL
same,MIC,[4],32 µg/mL
same,MIC,[5],32 µg/mL
same,MIC,[6],4 µg/mL
same,MIC,[7]; 48 h,2 µg/mL
same,MIC,[8],2 µg/mL
same,MIC,[9],16 µg/mL
same,MIC,[10],32 µg/mL
same,MIC,[11],1 µg/mL
same,MIC,[12],4 µg/mL
same,MIC,[13],4 µg/mL
same,MIC,[14],0.5 µg/mL
same,MIC,[15],16 µg/mL
same,MIC,[16],32 µg/mL
same,MIC,[17],32 µg/mL
same,MIC,[18],4 µg/mL
same,MIC,[19],4 µg/mL
same,P24 values,"[20]; compound 2.5 μg/ml, added to the cells after viral infection",643 pg/mL
same,P24 values,"[20]; compound 2.5 μg/ml, added to the cells before viral infection",320 pg/mL
same,P24 values,"[20]; compound 10 μg/ml, added to the cells after viral infection",155 pg/mL
same,P24 values,"[20]; compound 10 μg/ml, added to the cells before viral infection",0 pg/mL
same,MIC,[21],0.5 µg/mL
same,MIC,[22],1 µg/mL
same,activity against Bacillus cereus (in words),[23],only moderately active
same,toxicity in treated mice,[24],no toxicity was observed
S=C=NCc1ccc2ccc3cccc4ccc1c2c34 [Compound 33],MIC,[3],8 µg/mL
same,antimicrobial / growth-inhibitory activity (in words),[1]; Table 1 screen,poor growth-inhibitory activity
same,MIC,[7],64 µg/mL
same,activity against MRSA (in words),[25],very efficient
same,MIC,[8],32 µg/mL
same,MIC,[11],32 µg/mL
same,MIC,[12],> 64 µg/mL
same,MIC,[13],> 64 µg/mL
same,MIC,[14],> 64 µg/mL
same,MIC,[18],> 64 µg/mL
same,MIC,[21],> 64 µg/mL
same,MIC,[22],4 µg/mL
same,activity against Bacillus cereus (in words),[23],very efficient
same,activity against Staphylococcus epidermidis (in words),[26],very efficient
"COc1ccc(CN=C=S)cc1 [Compound 2, reference compound]",MIC,[3],4 µg/mL
same,MIC,[27],> 64 µg/mL
same,MIC,"[4]; M. cansassi, read-out: MIC",32 µg/mL
same,MIC,"[5]; M. avium, read-out: MIC",32 µg/mL
same,MIC,[28],> 64 µg/mL
same,MIC,[6],8 µg/mL
same,MIC,[29],64 µg/mL
same,MIC,[7]; 48 h,1 µg/mL
same,MIC,[8],4 µg/mL
same,MIC,[30],32 to 64 µg/mL
same,MIC,"[9]; M. fortuitum, read-out: MIC",32 µg/mL
same,MIC,[31],4 µg/mL
same,MIC,"[10]; M. scrofulaceum, read-out: MIC",32 µg/mL
same,MIC,[32],32 µg/mL
same,MIC,[11],4 µg/mL
same,MIC,[33],> 64 µg/mL
same,MIC,[34],64 µg/mL
same,MIC,[35],32 to 64 µg/mL
same,MIC,[36],> 64 µg/mL
same,MIC,[12],8 µg/mL
same,MIC,[37],> 64 µg/mL
same,MIC,[13],8 µg/mL
same,MIC,[38],> 64 µg/mL
same,MIC,[39],64 µg/mL
same,MIC,[14],2 µg/mL
same,MIC,[15],32 µg/mL
same,MIC,[40],32 to 64 µg/mL
same,MIC,[16],32 µg/mL
same,MIC,[41],32 µg/mL
same,MIC,[42],8 µg/mL
same,MIC,"[17]; M. intracellularie, read-out: MIC",32 µg/mL
same,MIC,[18],8 µg/mL
same,MIC,[19],8 µg/mL
same,MIC,[43],> 64 µg/mL
same,MIC,[21],2 µg/mL
same,MIC,[44],> 64 µg/mL
same,MIC,[45],> 64 µg/mL
same,MIC,[46],> 64 µg/mL
same,MIC,[47],> 64 µg/mL
same,MIC,[22],< 1 µg/mL
same,MIC,[48],32 µg/mL
same,MIC,[49],64 µg/mL
same,MIC,[50],64 µg/mL

# Source: patent publication US9586907B2, “Isothiocyanate compounds, pharmaceutical compositions, and uses thereof” (priority 2006, dated 2017)
